For 56 compounds, IC50 results are on record in US20260097047A1, “Small molecule inhibitors of the ribosome biogenesis factor NVL2” (Board of Regents, The University of Texas System, priority 2023, published 2026).

Structures are written as SMILES.

One assay relates to HCT116 cells. Put plainly: Cell viability assay (CellTiter-Glo, 72 hours) in HCT116 human colorectal cancer cells. It counts as cell-based. The settings on record: Homo sapiens, HCT-116; Table 5; HCT116, 72 hours; read-out: Activity. A digest of the protocol:
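2,000 cells/well adhered overnight, then compound added by digital dispenser with DMSO normalized to 0.5%. Viability read after 72 h at 37 °C by ATP-based CellTiter-Glo luminescence. IC50 from ten-point curves baseline-corrected to vehicle, five-parameter asymmetric least-squares fit.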
On the technique in general: Cellular ATP, detected with luciferase, serves as a proxy for viable cell number.
For `CC#CCN1C(=O)c2ccccc2Sc2cc(Nc3ncc(C)nc3C)ccc21` [10-(But-2-yn-1-yl)-7-((3,5-dimethylpyrazin-2-yl)amino)dibenzo[b,f][1,4]thiazepin-11 (10H)-one], the IC50 was less than 500 nM. Consider `CC#CCN1C(=O)c2ccccc2Sc2cc(Nc3ncc(C)cc3C)ccc21` [10-(But-2-yn-1-yl)-7-((3,5-dimethylpyridin-2-yl)amino)dibenzo[b,f][1,4]thiazepin-11 (10H)-one], for which the IC50 is less than 500 nM. As to `CC#CCN1C(=O)c2ccccc2Sc2cc(Nc3nc(C#N)ccc3C)ccc21` [6-((10-(But-2-yn-1-yl)-11-oxo-10,11-dihydrodibenzo[b,f][1,4]thiazepin-7-yl)amino)-5-methylpicolinonitrile], the IC50 is less than 500 nM. Turning to `CCC/C=C/CN1C(=O)c2ccccc2Sc2cc(Nc3ncccc3C(F)(F)F)ccc21` [(E)-10-(Hex-2-en-1-yl)-7-((3-(trifluoromethyl)pyridin-2-yl)amino)dibenzo[b,f][1,4]thiazepin-11 (10H)-one], the IC50 fell in the range of 500 to 1000 nM. With `CC#CCN1C(=O)c2ccc(F)cc2Sc2cc(Nc3ncccc3C)ccc21` [10-(But-2-yn-1-yl)-3-fluoro-7-((3-methylpyridin-2-yl)amino)dibenzo[b,f][1,4]thiazepin-11 (10H)-one], the IC50 is less than 500 nM. For `CC#CCN1C(=O)c2ccccc2Sc2cc(Nc3ccnnc3)ccc21` [10-(But-2-yn-1-yl)-7-(pyridazin-4-ylamino)dibenzo[b,f][1,4]thiazepin-11 (10H)-one], the IC50 was less than 500 nM.

Staying with this assay, now noted: Homo sapiens, HCT-116; Table 6; HCT116, 72 hours; read-out: Activity.
Regarding `CC#CCN1C(=O)c2ccccc2Sc2cc(NC3CCCOC3)ccc21` (centres unmarked) [10-(But-2-yn-1-yl)-7-((tetrahydro-2H-pyran-3-yl)amino)dibenzo[b,f][1,4]thiazepin-11 (10H)-one], the IC50 was less than 500 nM. `CC#CCN1C(=O)c2ccccc2Sc2cc(NC3CC(COC)C3)cnc21` (centres unmarked) [Table 6: —CH2CCMe; 3-MeOCH2-cBu; CH/N; S, 11-(But-2-yn-1-yl)-3-((3-(methoxymethyl)cyclobutyl)amino)benzo[f]pyrido[3,2-b][1,4]thiazepin-10(11H)-one]: the IC50 is less than 500 nM.

The same assay, now with this note: Homo sapiens, HCT-116; Table 9; HCT116, 72 hours; read-out: Activity.
With `COc1ccc(C(=O)Nc2ccc3c(c2)Cc2ccccc2C(=O)N3CC#CC(F)(F)F)cc1` [Table 9: —CH2CCCF3; 4-MeOPh; CH2, 4-Methoxy-N-(6-oxo-5-(4,4,4-trifluorobut-2-yn-1-yl)-6, 11-dihydro-5H-dibenzo[b,e]azepin-2-yl)benzamide], the IC50 is less than 500 nM. Same read-out and setting: under `CC#CCN1C(=O)c2ccccc2C(C)c2cc(NC(=O)c3ccc4oc(=O)n(C)c4c3)ccc21` (centres unmarked) [N-(5-(But-2-yn-1-yl)-11-methyl-6-oxo-6,11-dihydro-5H-dibenzo[b,e]azepin-2-yl)-3-methyl-2-oxo-2,3-dihydrobenzo[d]oxazole-5-carboxamide] stands less than 500 nM.

The assay is the same for the next values; noted with them: Table 2; HCT116, 72 hours; read-out: Activity.
As to `CC#CCN1C(=O)c2ccccc2Sc2cc(NC(=S)N3CCCC3)ccc21`, the IC50 is less than 500 nM.

Still in this assay, the particulars now being: Table 3; HCT116, 72 hours; read-out: Activity.
Consider `CC#CCN1C(=O)c2ccccc2Sc2cc(NC(=O)Nc3ccc(OC)cc3)ccc21` [Table 3: —CH2CCMe; 4-MeOPh; CH/CH], for which the IC50 is less than 500 nM. For `CC#CCN1C(=O)c2ccccc2Sc2cc(NC(=O)Nc3cccc(OC)c3)ccc21` [Table 3: —CH2CCMe; 3-MeOPh; CH/CH], the IC50 was less than 500 nM.

The assay is the same for the next values; noted with them: Table 4; HCT116, 72 hours; read-out: Activity.
For the compound `CC#CCN1C(=O)c2ccccc2Sc2cc(NC(=S)N[C@H]3C[C@@H](O)C3)cnc21` [Table 4: —CH2CCMe; cis-3-OH-cBu; N], the IC50 was less than 500 nM.

Still in this assay, the particulars now being: Table 5; HCT116, 72 hours; read-out: Activity.
For the compound `C#CCN1C(=O)c2ccccc2Sc2cc(Nc3nc(C)ccc3F)cnc21`, the IC50 was less than 500 nM. On to `CC#CCN1C(=O)c2ccccc2Sc2cc(Nc3ncc(C)nc3C)cnc21`, for which the IC50 was less than 500 nM.

With `Cc1cnc(Nc2cnc3c(c2)Sc2ccccc2C(=O)N3CC#CCl)c(C)c1`, the IC50 is less than 500 nM. Consider `CC#CCN1C(=O)c2ccccc2Sc2cc(Nc3ncc(C)cc3F)cnc21`, for which the IC50 was less than 500 nM. On the same count and under the same terms, under `Cc1ccc(F)c(Nc2ccc3c(c2)Sc2ccccc2C(=O)N3CC#CCl)n1` stands less than 500 nM; under `Cc1cnc(Nc2ccc3c(c2)Sc2ccccc2C(=O)N3CC#CCl)c(C)c1`, less than 500 nM.

Turning to `O=C1c2ccccc2Sc2cc(Nc3cccnn3)cnc2N1CC#CCl`, the IC50 is less than 500 nM.

In the case of `CC#CCN1C(=O)c2ccccc2Sc2cc(Nc3nnccc3C)cnc21`, the IC50 is less than 500 nM.

Staying with this assay, now noted: Table 6; HCT116, 72 hours; read-out: Activity.
Turning to `CC#CCN1C(=O)c2ccccc2Sc2cc(NCC3(C)COC3)cnc21`, the IC50 is less than 500 nM.

Take `CC#CCN1C(=O)c2ccccc2Sc2cc(NC34CC(OC)(C3)C4)ccc21`: the IC50 is less than 500 nM.

As to `CC#CCN1C(=O)c2ccccc2Cc2cc(NCCCO)ccc21` [Table 6: —CH2CCMe; (CH2)3 OH; CH/CH; CH2], the IC50 was less than 500 nM. As for `CC#CCN1C(=O)c2ccccc2Cc2cc(NC3CC4(CC(O)C4)C3)ccc21` (centres unmarked), the IC50 was less than 500 nM. In the case of `CC#CCN1C(=O)c2ccccc2Cc2cc(NC3CCCOC3)ccc21` (centres unmarked), the IC50 is less than 500 nM.

For the compound `C#CCN1C(=O)c2ccccc2Sc2cc(NC3CC(OC)C3)cnc21` (centres unmarked) [Table 6: —CH2CCH; 3-MeOcBu; CH/N; S], the IC50 was less than 500 nM.

The assay is the same for the next values; noted with them: Table 7; cell viability assay, CellTiter-Glo, 72 hours; scaffold drawing 42 with R^2, R^3, X/Y, Z; read-out: Activity.
Turning to `COCCN1C(=O)c2ccccc2Sc2cc(NC(=O)c3cccc(Cl)c3)ccc21` [—(CH2)2OMe; 3-ClPh; CH/CH; S], the IC50 lay in the range of 1000 to 5000 nM. Regarding `C=CCN1C(=O)c2ccccc2Sc2cc(NC(=O)c3ccoc3)ccc21` [—CH2CH═CH2; furan-3-yl; CH/CH; S], the IC50 was less than 500 nM. Consider `C#CCOCCN1C(=O)c2ccccc2Sc2cc(NC(=O)c3ccoc3)ccc21` [—(CH2)2OCH2CCH; furan-3-yl; CH/CH; S], for which the IC50 is less than 500 nM. With `O=C(Nc1ccc2c(c1)Sc1ccccc1C(=O)N2CCO)c1ccoc1` [—(CH2)2OH; furan-3-yl; CH/CH; S], the IC50 was 1000 to 5000 nM. Still for that read-out and setting: under `C#CCOCCN1C(=O)c2ccccc2Sc2cc(NC(=O)c3cccc(CCC#N)c3)ccc21` [—(CH2)2OCH2CCH; 3-(2′-CNEt)Ph; CH/CH; S] stands less than 500 nM.

Staying with this assay, now noted: Table 8; analogs of scaffold drawing 43 defined by R^2, R^3, X/Y, W; read-out: Activity (IC50 class, cell viability assay).
In the case of `O=C(Nc1ccc2c(c1)Sc1ccc(F)cc1C(=O)N2CC#CCl)C1CC2(CC(=NO)C2)C1` (centres unmarked), the IC50 was less than 500 nM. On the same count and under the same terms, under `CC#CCN1C(=O)c2ccccc2Sc2cc(NC(=O)[C@@H]3C[C@H]3COC)cnc21` (relative stereo) [—CH2CCMe; trans-2-MeOCH2-cPr; CH/CH; N] stands less than 500 nM; under `CC#CCN1C(=O)c2cc(F)ccc2Sc2cc(NC(=O)CCCO)ccc21` [—CH2CCMe; (CH2)3OH; CH/CF; CH], less than 500 nM; under `CC#CCN1C(=O)c2ccc(Cl)cc2Sc2cc(NC(=O)C=CCOC)cnc21` [—CH2CCMe; CH—═CHCH2OMe; CCl/CH; N], less than 500 nM. Same read-out and setting: the result for `CC#CCN1C(=O)c2ccccc2Sc2cc(NC(=O)CCCO)cnc21` [—CH2CCMe; (CH2)3 OH; CH/CH; N] reads less than 500 nM; that for `C#CCN1C(=O)c2ccc(Cl)cc2Sc2cc(NC(=O)C3CC4(CC(=NO)C4)C3)cnc21` (centres unmarked), less than 500 nM; that for `CC#CCN1C(=O)c2ccccc2Sc2cc(NC(=O)NCCOC)ccc21` [—CH2CCMe; NH(CH2)2OMe; CH/CH; CH], less than 500 nM.

With `CC#CCN1C(=O)c2ccc(Cl)cc2Sc2cc(NC(=O)[C@@H]3C[C@H]3CO)ccc21` (relative stereo) [—CH2CCMe; trans-2-HOCH2-cPr; CCl/CH; CH], the IC50 is less than 500 nM. As for `CC#CCN1C(=O)c2ccc(Cl)cc2Sc2cc(NC(=O)C3CC4(CC(=NO)C4)C3)ccc21` (centres unmarked), the IC50 was less than 500 nM.

As to `O=C(CC1COC1)Nc1cnc2c(c1)Sc1ccccc1C(=O)N2CC#CC1CC1` [—CH2CC^cPr; (oxetan-3-yl)CH2; CH/CH; N], the IC50 is less than 500 nM. Regarding `O=C(Nc1cnc2c(c1)Sc1ccccc1C(=O)N2CC#CC1CC1)C1CC2(CC(=NO)C2)C1` (centres unmarked), the IC50 is less than 500 nM. Regarding `CC#CCN1C(=O)c2cc(F)ccc2Sc2cc(NC(=O)C(C)CCOC)ccc21` (centres unmarked) [—CH2CCMe; MeO(CH2)2CHMe-; CH/CF; CH], the IC50 was less than 500 nM.

In the case of `CC#CCN1C(=O)c2ccccc2Sc2cc(NC(=O)c3ccc(OC)nc3)ccc21` [—CH2CCMe; 6-MeO-pyrid-3-yl; CH/CH; CH], the IC50 is less than 500 nM. Same read-out and setting: the result for `CC#CCN1C(=O)c2ccc(F)cc2Sc2cc(NC(=O)[C@@H]3C[C@H]3COC)cnc21` (relative stereo) [—CH2CCMe; trans-2-MeOCH2-cPr; CF/CH; N] reads less than 500 nM; that for `O=C(Nc1cnc2c(c1)Sc1ccc(F)cc1C(=O)N2CC#CC1CC1)C1CC2(CC(O)C2)C1` (centres unmarked), less than 500 nM; that for `C#CCN1C(=O)c2ccccc2Sc2cc(NC(=O)C3CC4(CC(=NO)C4)C3)ccc21` (centres unmarked), less than 500 nM.

The same assay, now with this note: Table 9; HCT116, 72 hours; read-out: Activity.
For the compound `CC1(O)c2ccccc2C(=O)N(CC#CC2CC2)c2ccc(NC(=O)[C@@H]3C[C@H]3CO)cc21` (relative stereo), the IC50 was less than 500 nM. The same measure, in the same setting: the result for `CC#CCN1C(=O)c2ccccc2C(C#N)c2cc(NC(=O)[C@H]3C[C@H](OC)C3)ccc21` (stereo partly drawn) [Table 9: —CH2CCMe; trans-3-MeOcBu; CHCN] reads less than 500 nM. For `CC#CCN1C(=O)c2ccccc2C(C)c2cc(NC(=O)C=CCO)ccc21` (centres unmarked) [Table 9: —CH2CCMe; CH═CHCH2OH; CHMe], the IC50 was less than 500 nM. `CC#CCN1C(=O)c2ccccc2Cc2cc(NC(=O)[C@H]3C[C@@H](OC)C3)ccc21` [Table 9: —CH2CCMe; cis-3-MeOcBu; CH2]: the IC50 was less than 500 nM. For `COCC1CC1C(=O)Nc1ccc2c(c1)C(C)(O)c1ccccc1C(=O)N2CC#CC1CC1` (racemic), the IC50 is less than 500 nM.

In the case of `CC#CCN1C(=O)c2ccccc2C(C)c2cc(NC(=O)[C@H]3C[C@@H](O)C3)ccc21` (stereo partly drawn) [Table 9: —CH2CCMe; cis-3-OH-cBu; CHMe], the IC50 was less than 500 nM. Take `CC#CCN1C(=O)c2ccccc2Cc2cc(NC(=O)CC3COC3)ccc21` [Table 9: —CH2CCMe; (oxetan-3-yl)CH2; CH2]: the IC50 was less than 500 nM.
